Target: T1, Hepatic Lipase (Homo sapiens, UniProt P11150)
T1 sequence (P11150 23-499): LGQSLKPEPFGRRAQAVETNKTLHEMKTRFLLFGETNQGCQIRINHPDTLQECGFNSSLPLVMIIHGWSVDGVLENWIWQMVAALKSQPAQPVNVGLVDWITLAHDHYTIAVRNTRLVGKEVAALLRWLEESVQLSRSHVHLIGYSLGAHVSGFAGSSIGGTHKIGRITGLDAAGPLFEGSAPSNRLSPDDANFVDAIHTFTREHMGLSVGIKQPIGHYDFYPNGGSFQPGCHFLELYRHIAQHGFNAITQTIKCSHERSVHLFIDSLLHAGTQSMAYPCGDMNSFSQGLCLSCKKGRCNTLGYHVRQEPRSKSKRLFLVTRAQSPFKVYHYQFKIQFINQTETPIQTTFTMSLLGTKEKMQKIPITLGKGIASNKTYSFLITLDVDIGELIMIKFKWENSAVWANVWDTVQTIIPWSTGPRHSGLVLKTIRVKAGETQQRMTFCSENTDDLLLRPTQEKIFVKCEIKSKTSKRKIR
Assay: Hydrolysis of thioPEG and thioPC substrates by Hepatic Lipase (papain thiol detection system, FIG. 1)
Type: biochemical
Settings: 0.5 mM thioPEG (enzyme diluted 100-5000 fold), 1.0 mM thioPC (enzyme diluted 1-64 fold)
Method: Hepatic Lipase enzyme was diluted 1, 32 or 64 fold for thioPC and 100, 500, 1000 or 5000 fold for thioPEG. Hydrolysis was measured by the papain thiol detection system (discussed below). […] Data curve I represents 0.5 mM thioPEG and Data Curve II represents 1.0 mM thioPC.
The invention also has the additional advantage of requiring fewer incubation periods in order to obtain detectable color. For example as shown in Scheme D below, thioPC substrate requires a reaction coupled with an enzymatic detection process for the liberated thiol-lysophospholipid which has two additional incubation periods in the papain system. L-BAPNA is an abbreviation for N-benzoyl-L-arginine, p-nitroanilide, hydrochloride.
In Scheme E, below, thioPC is combined with hepatic lipase and incubated for about 30 minutes yielding a free-thiol lysophospholipid. […] Activated papain-SH enzyme is combined with a coloring agent, L-BAPNA, and incubated for 60 minutes yielding a colored product, p-nitro aniline. ThioPEG substrate is an improvement since it requires only a single incubation period to yield detectable color. [drawing 12]

Row | hydrolysis of substrate by Hepatic Lipase (Optical Density at 410 nM vs Relative Enzyme Concentration) | Molecule
1 | hydrolyzed much faster than thioPC | CCCCCCCCCC(=O)O[C@@H](COP(=O)(O)OCCO)CSC(=O)CCCCCCCCC [thioPEG, (1-Decanoylthio-1-deoxy-2-decanoyl-sn-glycero-3-phosphoryl) ethylene glycol]
2 | much more slowly | didecanoyl-thio-phosphatidylcholine [thioPC]

Source: patent US6448422B1, “Chromogenic compound” (Eli Lilly and Company, priority 2000, dated 2002)
